Assay results reported in US7964598B2 (The J. David Gladstone Institutes, priority 1995, dated 2011).
Several values for one entry are separate records, joined by “and”; a condition that tells them apart may be missing. Equal values may be shown once.

How the values were obtained:
Neuro-2a cells [1] = assay: Aβ-induced lysosomal leakage (cytosolic β-hexosaminidase); assay type: cell-based, mouse; details: 20 μM Aβ1-42
Method: The cytosolic fraction was obtained by ultracentrifugation, and the cytosolic β-hexosaminidase activity was measured.
Quantitation of the lysosomal enzyme β-hexosaminidase activity in the cytosol indicates lysosomal leakage. […] After incubation the cells were washed and cytosolic fractions were isolated as described in Materials and Methods. The enzymatic activity of β-hexosaminidase was assayed in 20 μg of cytosolic protein for each sample.
Lysosomal leakage was quantitated by assaying cytosolic 0-hexosaminidase activity. […] Conditioned media were prepared as described above. Apoptosis was quantitated by measuring DNA fragmentation.

Neuro-2a cells [2] = assay: Aβ-induced apoptosis (DNA fragmentation assay); assay type: cell-based, mouse
Method: DNA Fragmentation Assay—DNA fragmentation of apoptotic cells was determined with Cell Death Detection ELISA kits (Roche, Indianapolis, Ind.).
FIG. 38. […] Control cells were not treated with Aβ1-42. Apoptotic cell death was measured with a DNA fragmentation assay. Values are the mean±S.D. of three separate experiments.
FIGS. 39A and 39B. […] Lysosomal leakage was quantitated by assaying cytosolic 0-hexosaminidase activity. […] Conditioned media were prepared as described above. Apoptosis was quantitated by measuring DNA fragmentation.

B103-APP cells = assay: APP processing and Aβ production, B103-APP cells; assay type: cell-based, rat
Method: (§1) Aβ production assay. Stable neuroblastoma B103 cell lines transfected with a wildtype hAPP cDNA construct (B 103-APP) were selected by growing them in Dulbecco's modified Eagle's medium (DMEM) containing 10% fetal calf serum (FBS) and 400 μg/ml G418. A cell line expressing APP at similar levels in mouse brains has been identified by RNase protection assay (RPA) and was used in the studies described below. To determine Aβ production, B103-APP cells were incubated with serum-free minimal essential medium (MEM) containing N2 supplements with or without apoE isoforms for 24 h at 37° C. After incubation, 50 μl of medium was collected and assayed for Aβ levels with an ELISA method. The cells were lysed, and cellular proteins were determined by the Lowry method. AP production was normalized to cellular protein.
(§2) Cell Culture. Rat neuroblastoma B103 cells stably expressing human wildtype APP (hAPP695wt) (Xu et al. ((1999) Proc. Natl. Acad. Sci. USA 96:7547-7552; Esposito, et al. (2004) J. Neurochem. 91:1260-1274) were generated in Dr. Lennart Mucke's laboratory at the Gladstone Institute of Neurological Disease and maintained in Dulbecco's modified Eagle's medium (DMEM) (GIBCO, Grand Island, N.Y.) containing 400 μg/ml G418, 10% fetal bovine serum, and 5% horse serum at 37° C. Twenty-four hours after plating into 48-well plates (1×10^5 cells per well), cells were washed twice with serum-free DMEM and cultured for another 24 h in DMEM containing 1% N-2 supplement (GIBCO) to induce differentiation. The cells were treated with either β-VLDL (25 μg/ml cholesterol), recombinant human apoE isoform-enriched β-VLDL (7.5 μg/ml apoE and 25 μg/ml cholesterol), or recombinant human apoE (7.5 μg/ml apoE) in fresh DMEM containing 1% N-2 supplement for an additional 24 h. In some experiments, RAP (25 nM or 1 μM) was added to the cells 1 h before apoE treatment.
In some experiments, cells were treated with lovastatin, as described but with a minor modification. Fassbender et al. (2001) Proc. Natl. Acad. Sci. USA 98:5856-5861. Briefly, cells were maintained in differentiation medium containing 4 μM lovastatin and 0.25 mM mevalonate for 24 h. After treatment for 5 min with 5 mM methyl-β-cyclodextrin, which depletes cell membrane cholesterol (Bodovitz and Klein (1996) J. Biol. Chem. 271:4436-4440; Kojro et al. (2001) Proc. Natl. Acad. Sci. USA 98:5815-5820), the cells were incubated in fresh differentiation medium containing lovastatin and mevalonate for 24 h. The conditioned medium was collected, and cellular cholesterol extracted with chloroform/methanol (Huang et al. (1994) Proc. Natl. Acad. Sci. USA 91:1834-1838) and quantitated with a kit from Abbott Laboratories (Abbott Park, Ill.).
Detection of sAPPα. Media conditioned for 24 hours were normalized by protein content and subjected to SDS/PAGE. Proteins were then transferred onto nitrocellulose membranes. The sAPPα was detected by mAb 6E10 and visualized with an enhanced chemiluminescence system (Pierce, Rockford, Ill.).
(§3) Aβ Assay. Aβ secreted into the medium was detected with a sandwich enzyme-linked immunosorbent assay (ELISA), using mAb 266 as a capturing antibody and 3D6 as a detecting antibody, as described. Johnson-Wood et al. ((1997) Proc. Natl. Acad. Sci. USA 94:1550-1555). Aβ was quantified from a standard curve (Aβ42; Bachem, Torrance, Calif.) and normalized by total cellular protein.

apoE3 [3] = biological target: T1, apoE3 (Homo sapiens, UniProt P02649); assay: Emulsion binding assay, apoE3; details: follow-up assay
T1 construct: made in house
Method: (§4) Preparation of emulsion particles. Triolein (160 mg) and L-alpha-Phosphatidylcholine (40 mg) are combined and dried under nitrogen. After the addition of 8 mls of buffer (10 mM Tris, 100 mM KCl, 1 mM EDTA, pH 8.0), the mixture is sonicated in a water bath to obtain a heterogeneous mix of emulsion particles. The particles are harvested by ultracentrifugation (TLA 100.2 rotor, 30,000 rpm for 30 minutes) and the subsequent lipid cake is removed by tube slicing and resuspended in 100 μt 20 mM Phosphate Buffer (PB). Triolein and phospholipid content are measured and total emulsion particle concentration is determined.
(§5) Radiolabelling Freshly denatured and renatured Apolipoprotein E3 and E4 are radiolabelled using Bolton-Hunter Reagent [^125I] (ICN). Specific Activity is determined using Lowry method and Gamma 8000 counter.
(§6) Binding Affinity Assay. […] In glass tubes, 25 μg of protein (with iodinated tracer) was reduced with 1% β-mercaptoethanol. Two hundred and fifty μg of emulsion particles and 2.5 μl of compound (10 mM stock) were added and the final mixture was brought up to 250 μl with 20 mM phosphate buffer (PB). The reaction mixture was then incubated in a 37° C. water bath for 2 hours before being transferred to 1.5 ml ultracentrifuge tubes. Finally, 50 μl of 60% sucrose was mixed with the sample and 400 μl 20 mM PB was carefully layered on top. Using a TLA 100.2 rotor, the tube was spun at 30,000 rpm for 30 minutes and subsequently cut to separate the floating emulsion particle layer from the free protein at the bottom of the tube. These fractions were then combined with the respective half of the actual tube and counted using a Gamma-8000. […] Protein-only assays yielded 94.5-96.6% of protein accumulated in the bottom portion of the tube. In emulsion particle-only assays, 94% of emulsion particles accumulated in the top portion of the tube.
(§7) Preparation of Emulsion Particles and VLDL Binding Affinity Assay. VLDL-like emulsion particles were prepared using triolein (160 mg) and L-alpha-phosphatidylcholine (40 mg), as described. Dong and Weisgraber (1996) supra; and Dong et al. (1994) J. Biol. Chem. 269:22358-22365.

apoE4 = biological target: T2, apoE4 (Homo sapiens, UniProt P02649, C130R); assay: Emulsion binding assay for domain interaction, apoE4; details: for E4 + cpd n = 3, % bound / E4 + cpd n = 3, % free / E4 control, % bound / E4 control, % free: follow-up assay; for E4 control, % bound / E4 control, % free: second E4 control; for E4 + cpd, % bound / E4 + cpd, % free: initial assay, 2.5 μl of compound (10 mM stock) in 250 μl, 37° C. 2 hours
T2 construct: made in house
Method: as §4, §5, §6, §7

apoE3 [4] = assay: Aβ production assay, B103-APP cells incubated with apoE3; assay type: cell-based, rat; details: FIG. 22
Method: as §1, §2, §3

[5] = test system: apoE4 enhancement of Aβ production; assay: Aβ production assay, B103-APP cells incubated with apoE4; assay type: cell-based, rat; details: FIG. 22
Method: as §1, §2, §3

[6] = β-VLDL 25 μg/ml cholesterol or lovastatin 4 μM

T2 sequence (P02649 19-317 C130R): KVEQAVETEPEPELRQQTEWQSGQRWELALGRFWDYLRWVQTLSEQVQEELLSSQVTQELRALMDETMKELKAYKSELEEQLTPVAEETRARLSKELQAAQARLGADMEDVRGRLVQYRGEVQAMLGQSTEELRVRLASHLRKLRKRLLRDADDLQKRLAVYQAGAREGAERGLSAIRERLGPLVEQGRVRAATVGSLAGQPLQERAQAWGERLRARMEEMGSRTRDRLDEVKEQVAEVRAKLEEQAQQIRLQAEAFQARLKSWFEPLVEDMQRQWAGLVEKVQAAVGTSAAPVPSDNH
T1 sequence (P02649 19-317): as the sequence (P02649 19-317 C130R) above, with R112C counted along it

| Molecule | E3 + compound, % bound (apoE3 [3]) | E3 + compound, % free (apoE3 [3]) | E4 + cpd n = 3, % bound (apoE4) | E4 + cpd n = 3, % free (apoE4) | E4 control, % bound (apoE4) | E4 control, % free (apoE4) | E4 + cpd, % bound (apoE4) | E4 + cpd, % free (apoE4) | other results |
| --- | --- | --- | --- | --- | --- | --- | --- | --- | --- |
| Aβ1-42: Amyloid β1-42, aggregated before use |  |  |  |  |  |  |  |  | increase of cytosolic β-hexosaminidase activity (Neuro-2a cells [1]; apoE4-transfected cells): ~85%; increase of cytosolic β-hexosaminidase activity (Neuro-2a cells [1]; neo-transfected cells): ~40%; DNA fragmentation (Neuro-2a cells [2]; apoE3-transfected cells, 20 μM Aβ1-42, 18 h): 110 % of that in Z-VAD-treated con; DNA fragmentation (Neuro-2a cells [2]; apoE4-transfected cells, 20 μM Aβ1-42, 18 h): ~250 % of that in Z-VAD-treated con; Aβ-induced DNA fragmentation (Neuro-2a cells [2]; neo-transfected cells in apoE3-conditioned medium, 20 μM Aβ1-42, 18 h): 202%; Aβ-induced DNA fragmentation (Neuro-2a cells [2]; neo-transfected cells in apoE4-conditioned medium, 20 μM Aβ1-42, 18 h): 314%; Aβ-induced DNA fragmentation (Neuro-2a cells [2]; neo-transfected cells in neo-conditioned medium, 20 μM Aβ1-42, 18 h): 232%; DNA fragmentation (Neuro-2a cells [2]; neo-transfected cells, 20 μM Aβ1-42, 18 h): ~140 % of that in Z-VAD-treated con |
| apoE4-Thr-61: Thr-61 mutant of apoE4, lacks intramolecular domain interaction |  |  |  |  |  |  |  |  | enhanced Aβ production (B103-APP cells; 7.5 μg/ml, 37° C., 24 h, compared with apoE3 or apoE4): abolished the enhanced Aβ production |
| Z-VAD |  |  |  |  |  |  |  |  | DNA fragmentation, Z-VAD treatment alone (Neuro-2a cells [2]; compared with untreated control cells): no effect; Aβ-induced DNA fragmentation (Neuro-2a cells [2]; pretreatment with Z-VAD 100 μg/ml 2 h, all three cell lines): greatly reduced |
| O=C(N[C@H](Cc1ccc(OCc2ccccc2)cc1)C(=O)O)OCc1ccccc1 [Z-D-Tyr (BZL)-OH] | 26% | 74% | 57% | 43% | 43% | 57% | 25% and 23% | 75% and 77% |  |
| CC[C@H](C)C(=O)O[C@H]1C[C@@H](C)C=C2C=C[C@H](C)[C@H](CC[C@@H]3C[C@@H](O)CC(=O)O3)[C@H]21 [lovastatin, reference compound] |  |  |  |  |  |  |  |  | cellular cholesterol content (B103-APP cells; [6]): lowered; production of Aβ (B103-APP cells; [6]): decreased; secretion of sAPPα (B103-APP cells; [6]): increased |
| O.O=C([O-])c1ccccc1-c1c2cc(I)c(=O)c(I)c-2oc2c(I)c([O-])c(I)cc12.[Na+].[Na+] [Erythrosin B] | 20% | 80% | 57% | 43% | 26% | 74% | 11% and 10% | 89% and 90% |  |
| 5-chloro-2-(4-chloro-2-(3,4-dichloro phenylureido) [GIND32] | 14% | 86% | 57% | 43% | 49% | 51% | 22% and 19% | 78% and 81% | effect on apoE3 (Aβ production) (apoE3 [4]): no effect; apoE4 enhancement of Aβ production [5]: abolished completely |
| glycine cresol red [GIND29] | 33% | 67% | 57% | 43% | 48% | 52% | 23% and 29% | 77% and 71% | effect on apoE3 (Aβ production) (apoE3 [4]): no effect; apoE4 enhancement of Aβ production [5]: abolished completely |
